From patent US5098933A, “Pharmaceutically useful Michael addition products of unsaturated aldehydes and ketones and ascorbic acid” (Theracel Corporation, priority 1990, dated 1992)
Where “and” joins values, the source holds several entries; their conditions need not be identical. Identical values can stand only once. Entries after “also recorded” stand apart in the source; their conditions may differ.

Tests used:
splenocytes = assay: Immunomodulation panel: total splenocyte counts, antigen stimulated mice; format: in vivo, C57BL/6J mice
Experimental: Daily intraperitoneal injections of KCPBL were administered to normal animals and immunological responsiveness to mitogens and specific antigen evaluated.
The test compound was weighed out immediately before use and dissolved in the injection vehicle. This solution was sterile-filtered using a 0.22 micron filter and the appropriate dose injected into mice in a 0.5 ml volume. The dose was individually calculated for each animal, based on animal weight on the first day of the experiment.
Inbred C57BL/6J mice were obtained from Jackson Laboratories, Bar Harbor, Me. The animals were held for one week before use in an experiment. Prior to commencement of a study, the animals were placed into groups and weighed.
Group size ten male mice per dosage group.
Doses and schedule--Doses were selected to bracket the range generally known to be immunostimulatory in past experiments, 1, 10, and […] daily for four days.
Immunization--All animals except for sham controls were injected with 0.5 ml of a 2% suspension of sheep erythrocyte on day zero. This occurred two days following any pretreatment and the day before the initiation of study drug administration.
Sacrifice--Animals were sacrificed by cervical dislocation on day five. […]
As an assessment of immunopathology in the above screening test panel, the cellularity of the spleen was evaluated by determination of the total number of splenocytes harvested. Humoral-mediated immunity was measured by enumerating IgM plaque-forming cells to the T-dependent antigen sheep erythrocytes. Cell-mediated immunity was evaluated as described above by determination of the ability of the splenocytes to produce the lymphokine interleukin-2 in response to stimulation by the mitogen concanavalin-A. Another measurement of cell-mediated immunity was the responsiveness of the splenic lymphocytes to the mitogens concanavalin-A (Con-A); phytohemagglutinin (PHA) and pokeweed mitogen (PWM) in the lymphocyte blastogenesis assay. […] The responsiveness of the cells was measured by the uptake of radiolabeled 14C-thymidine.

CD-1 male mice = assay: Parenteral Toxicity--LD50 in mice
Experimental: (§1) The objective of this experiment was to determine the LD50 value for KCPBL when administered intraperitoneally to mice in a standard LD50 test procedure.
(§2) The test animals were CD-1 male mice. The mean weight for these animals on the day of test product administration was 25.5 grams.
(§3) KCPBL (lot 101, consisting of 42% stereoisomer A and 58% stereoisomer B) was dissolved in pyrogen-free normal (0.85%) saline (NaCl).
(§4) Five animals constituted each treatment group.
(§5) Each mouse received 0.5 ml by intraperitoneal (i.p.) injection, using a 3.0 cc syringe fitted with a 23-gauge needle.
(§6) All mice were observed daily for signs, symptoms and survival for three days. Survival statistics were determined after third day.
(§7) Two mice were randomly selected from the control and high dose test group for sacrifice and selection of tissues for histopatholigic examination.
(§8) LD50 was calculated by the method of Spearman & Karber: Basic Exercises in Immunochemistry, A. Nowatny (Ed); Pg 184-85, Springer-Verlag,N.J.

[1] = Parenteral Toxicity--LD50 in mice; details: mouse, in vivo, ip
Experimental: as §1, §2, §3, §4, §5, §6, §7, §8

CD-1 mice = assay: Immunotoxicity--Multi-dose: survival, weight, organ and histopathology assessment; format: in vivo; details: for Organ weight, Kidney / Organ weight, Liver / Organ weight, Lung / Organ weight, Spleen / Organ weight, Tail: individual animals A, B
Experimental: The immunotoxicological potential of KCPBL was evaluated in this experiment in which the study drug was administered to CD-1 mice for fourteen days (100 or 1000 mg/kg/day), either perorally (by gavage) or intravenously (tail vein). On the fifteenth day, the mice were weighed and sacrificed. The spleen, lungs, liver, kidneys and thymus were removed from each animal, fixed in formalin and histopathologically evaluated. In addition, a differential white blood cell count was obtained for a peripheral blood sample as well as the following tests performed: spleen cell counts (performed with Coulter Counter) and lymphocyte stimulation assays using PHA, CON-A and PWM techniques.
CD-1 mice were obtained from Charles Rivers Laboratories. The mice were quarantined for at least one week in a separate holding room prior to use in this experiment. Five mice per treatment were used. The mice were housed in a Thoren positive pressure laminar flow Maximizer caging system with each case controlled for water and air flow. The mouse rooms are maintained on a 12-hour light/dark cycle at a constant temperature of 76° F.
KCPBL containing approximately 50:50 ratio of the two epimers as determined by HPLC and optical rotation analysis was used in this study. An amount of drug was calculated to deliver the equivalent of 100 or 1000 mg/kg, either by the oral or intravenous route. The average weight of the mice was 29.5 grams.
[…] Mice were administered KCPBL daily for a total of fourteen days via the oral (0.2 ml of a 147.5 mg/ml solution or a 29.5 mg/ml solution by gavage) and intravenous route (0.2 ml of 147.5 mg/ml solution or a 29.5 mg/ml solution by tail vein) to achieve a dose of 100 or 1000 mg/kg, respectively. The test dose was prepared fresh daily and dissolved in sterile non-pyrogenic saline. On the fifteenth day the mice were weighed, sacrificed, and the spleens, lungs, livers, kidneys and thymuses removed. These organs were weighed and, except for the spleens, the formalin-fixed organs were analyzed by a veterinary pathologist. Only two randomly-selected sets of animal organs per treatment group were histopathologically evaluated since the remaining three animals were used to isolate splenic lymphocytes for use in cellular immunoassays.
A leukocyte differential was obtained on peripheral blood samples and spleen cell counts (performed with Coulter Counter), and an IL-2 induction assessment as well as standard lymphocyte stimulation assays using PHA, CON-A and PWM conducted.
Survival was assessed through the fifteenth day. All the surviving mice were sacrificed on the fifteenth day, predetermined organs removed, place in formalin, and subjected to for histopathologic examination by a veterinary pathologist.
The individual spleens of three mice from control and test groups were processed to isolate lymphocytes and the protocols for lymphocyte blastogenesis, IL-2 induction and assay were performed. The remaining two mice in each group were sacrificed and their lungs, liver, kidney, and spleen were fixed in formalin and sent to AnMed Biosafe for histopathologic examination.

[2] = group 2 (1000 mg/kg P.O.), 1000 mg/kg
[3] = group 3 (1000 mg/kg IV), 1000 mg/kg
[4] = group 5 (100 mg/kg IV), 100 mg/kg

SMILES: O=C1CCC(C2(O)C(=O)OC3C(O)COC32O)C1 (stereo not shown) [KCPBL]
- Splenocytes (splenocytes; 1.0 mg/kg i.p.): 4.34 ± 0.7 ×10^7
- Splenocytes (splenocytes; 10 mg/kg i.p.): 3.59 ± 0.8 ×10^7
- Splenocytes (splenocytes; 100 mg/kg i.p.): 3.62 ± 0.4 ×10^7
- deaths (CD-1 male mice; highest dose level, i.p.): Only two animals died
- organ histopathology (lungs, liver, kidneys) (CD-1 male mice; mouse, in vivo): no significant deviations in organ histopathology
- overt signs or symptoms of toxic response (CD-1 male mice; mouse, in vivo, ip): no overt signs or symptoms observed
- LD50 at 72 h [1]: ~8570 mg/kg
- PMV:Mono ratio (CD-1 mice; 100 mg/kg IV (group 5)): 10/90
- PMV:Mono ratio (CD-1 mice; 1000 mg/kg IV (group 3)): 11/89
- PMV:Mono ratio (CD-1 mice; 1000 mg/kg P.O. (group 2)): 21/79
- generalized toxicity / immunotoxic effect (CD-1 mice; 100 or 1000 mg/kg, either route): None of the mice showed evidence of generalized toxicity; also recorded: no evidence of a immunotoxic effect
- weight loss (CD-1 mice; 100 or 1000 mg/kg/day, 14 days, i.v. or p.o.): No clinically significant weight loss
- survival / deaths (CD-1 mice; 14 days dosing): Except for treatment group 4 (KCPBL 100 mg/kg perorally), all animals survived to the conclusion of the trial; also recorded: In group 4, two animals were found dead on day 4 and another animal dead on day 10
- Organ weight, Kidney (CD-1 mice; [2]): 271.7 mg and 269.8 mg
- Organ weight, Liver (CD-1 mice; [2]): 1710 mg and 1780 mg
- Organ weight, Lung (CD-1 mice; [2]): 192.5 mg and 175.8 mg
- Organ weight, Spleen (CD-1 mice; [2]): 102.6 mg and 103.7 mg
- Organ weight, Tail (CD-1 mice; [2]): 236.2 mg and 229.1 mg
- Organ weight, Kidney (CD-1 mice; [3]): 287.1 mg and 225.3 mg
- Organ weight, Liver (CD-1 mice; [3]): 1760 mg and 1310 mg
- Organ weight, Lung (CD-1 mice; [3]): 209.1 mg and 177.1 mg
- Organ weight, Spleen (CD-1 mice; [3]): 110.8 mg and 75.6 mg
- Organ weight, Tail (CD-1 mice; [3]): 235.8 mg and 239.6 mg
- Organ weight, Kidney (CD-1 mice; [4]): 235.4 mg and 377.9 mg
- Organ weight, Liver (CD-1 mice; [4]): 1570 mg and 2350 mg
- Organ weight, Lung (CD-1 mice; [4]): 177.9 mg and 192.3 mg
- Organ weight, Spleen (CD-1 mice; [4]): 88.7 mg and 104.2 mg
- Organ weight, Tail (CD-1 mice; [4]): 215.1 mg and 248.2 mg
- Histopathology (lung, liver, kidney, spleen, thymus, tail) (CD-1 mice; groups 1, 2, 3, and 5): all tissues examined were considered to be within the normal range
- WBC differentials (CD-1 mice; peripheral blood, granulocyte and mononuclear cells): within normal limits
- organ systems (weights, histopathological assessments) (CD-1 mice; vs sham-injected controls): within normal weight limits
